{"source": "patent US8507439B2", "about": "“Neuroprotective and neurorestorative method and compositions” (priority 2005, dated 2013)", "key": {"[1]": {"test_system": "N27 dopaminergic cells", "test": "Survival of N27 dopaminergic cells in the presence of 300 μM MPP+ neurotoxic agent", "format": "cell-based, rat"}, "[2]": {"test_system": "noradrenergic neurons in the striatum", "test": "Survival of noradrenergic neurons in the MPTP mouse model for Parkinson's disease", "format": "in vivo", "text": "Tests were done in the MPTP mouse model for Parkinson's disease."}, "[3]": {"test_system": "SH-SY5Y human neuroblastoma cells", "test": "Protection of SH-SY5Y neuroblastoma cells from Yankner peptide (b/A4), LDH content of remaining cells", "format": "cell-based", "settings": "20 μM Yankner peptide alone", "description": "A characteristic constituent of Alzheimer's Disease (AD) is the formation of plaques from the 39-43 amino acid long peptide derived from amyloid protein (Selkoe, D. TINS (1993) 16: 403-409). This molecule (b/A4) can be toxic to mammalian nerve cells. […] Yankner et al. (Science (1990) 250: 279-282) has developed this property in a culture method as an AD assay procedure.\nDifferentiated cultures of SH-SY5Y Human neuroblastoma cells were grown to a stage where the cells formed a network of neurites. […] At day 3, after removal of the supernatant and the debris from dead cells by 3 washes with saline, the cells were then lysed and their LDH content was assayed for cell survival by measuring the LDH present in the remaining cells. The results were compared to LDH present in untreated controls, that were incubated for 3 days with no peptide additives (Table 7). The assay assumes that the LDH content of healthy cells remains constant and can be used as an index of living cells. The experiments using anoxia in our previous work were in agreement with this assumption.\nThis experiment was performed in the method described above for Example 6, Experiment 1, except that the cells were incubated for 4 days instead of 3 to enhance the degenerative effect of the Yankner peptide. […]"}, "[4]": {"test_system": "SHSY cells", "format": "cell-based, human", "settings": "20 μM Yankner peptide alone", "quoted_text": "Aliquots of 3×10^5 SHSY cells were plated in each well of a 24-well microtiter plate in 1 ml of medium containing no peptides (Control=Ctrl), 20 μM Yankner peptide (Yankner), or 20 μM Yankner peptide+75 μM of DQ (SEQ ID NO:2) (Yankner+BTX). Plates were incubated at 37° C. in a 5% CO2 incubator for 3 days, then each well was washed twice with 1×PBS to remove loosely bound cells. The number of remaining cells per ml was determined by microscopy. […] Error bars denote one standard deviation. […] BTX was DQ (SEQ ID NO:2) in this experiment."}, "[5]": {"test_system": "SHSY cells", "test": "LDH levels in residual surviving SHSY cells after Yankner peptide", "format": "cell-based, human", "settings": "Yankner peptide alone", "description": "In a tissue culture model for Alzheimer's disease, treatment with the Yankner peptide (amyloid fragment) causes cell death within 3 days. […] By studying the time course of cell death in this culture model for Alzheimer's disease, it was determined that about 60% of the cells die within 24 hrs. When the neuroprotective/neurorestorative peptide of the invention was added to the cells at the 24 hour time point (e.g., 24 hours after the cells were contacted with the Yankner peptide), over 40% of the injured neurons that were destined to die on day 3 were rescued.\nAliquots of 3×10^5 SHSY cells were plated in each well of a 24-well microtiter plate in 1 ml of medium containing no peptides (control=Ctrl), 20 μM Yankner peptide (Yankner), 20 μM Yankner peptide+75 μM DQ peptide (SEQ ID NO:2) added at time of plating (Yankner+BTX Simultaneous), or 20 μM Yankner+75 μM BTX-639 added 24 hr post plating (Yankner+BTX 24 Hr Post). Plates were incubated at 37° C. in a 5% CO2 incubator for 3 days, then each well was washed twice with 1×PBS to remove loosely bound cells. Whole cell lysates were prepared from the remaining attached (viable) cells, and Lactate dehydrogenase (LDH) activity measured as described in methods. The results are illustrated in FIG. 2, in which each histobar represents the mean of 11 independent trials. Error bars denote one standard deviation. […]"}, "[6]": {"test_system": "primary rat cortical cultures", "test": "Oxygen-glucose deprivation (anoxia) of primary rat cortical cultures, LDH release into extracellular medium", "format": "cell-based", "description": "Peptides of the invention have been examined for neuroprotective activity in primary rat cortical cultures. […] It rescued 90-100% of the neurons that were exposed to a 3 hour oxygen-glucose deprivation (OGD).\nFor the tests, primary mixed neuron-glia rat cortical cultures were grown to 80-95% confluence, as previously described (Shashoua, V. E. et al., Brain Res. (2004) 1024(1-2):34-43). Their neurons were grown over a layer of glia cells and formed a network of processes. Such cultures, after a 5× wash in oxygen-free (air displaced by argon) Hanks Balanced Salt Solution (HBSS) (Shashoua, V. E. et al., Brain Res. (2004) 1024(1-2):34-43) buffer, which contained no glucose, serum, and growth factors, were transferred for 3 hrs into the Form a Scientific Anaerobic Chamber (Thermo Forma, Marietta, Ohio) (Goldberg, M. P. and Choi, D. W. J Neurosci. (1993) 13(8):3510-3524) in an atmosphere of N2, CO2 and H2 (85%, 5%, and 10%). After exposure to oxygen-glucose deprivation (OGD) the neurons, retract their processes and generate vacuoles in their perikarya. […] Large increases (about 250%) in the release of lactic acid dehydrogenase (LDH, a marker of cell injury) into the extra-cellular medium occurred. For the test of glucose-oxygen deprivation on the release of lactic acid dehydrogenase as a function of time by primary rat cortical cultures, the LDH assay of extracellular fluid (1 ml aliquots) for cultures from cells were incubated for 24 hours under normoxia conditions and were compared with cells exposed up to 4 hours of anoxia in HBSS medium followed by normoxia medium for a total period of 24 hours. LDH was measured as absorbance at 490 nm, n=6 per time point (Shashoua, V. E. et al., Brain Res. (2004) 1024(1-2):34-43) (see Table 2). Assays and detection were performed according to manufacturer's instructions using a Promega Cyto Tox 96, a nonradioactive cytotoxicity assay kit (Promega, Madison, Wis.).\nFor these experiments there were n=6 per assay, and a 3 hour treatment of anoxia was followed by 21 hours of normoxia reperfusion. SEQ ID NO:1 was added at 1 hour post initiation of anoxia and was also present during the 21 hours of reperfusion. […] The results for SEQ ID NO:1 as well as the results for SEQ ID NOs:3 and 4, which are shown in Tables 3 and 4 give results of LDH assay that was done on supernatant of extracellular medium."}, "[7]": {"settings": "300 μM MPP+ + 14 μM peptide, n = 8"}}, "note": "Residues, ends and D or L forms follow the SMILES beside them. No end group written: not given here. ξ: configuration not given here. *: point of attachment. Lip = lipoic acid (N-terminal), O=C(CCCC[C@@H]1CCSS1)*; Lipoyl(6ξ) = O=C(CCCCC1CCSS1)*"}
{"compound": "C[n+]1ccc(-c2ccccc2)cc1", "note": "[MPP+, 1-methyl-4-phenylpyridinium, reference compound]", "values": [{"measurement": "% Rescue after Treatment for 0 hours", "setting": "[1]; 300 μM MPP+ alone", "value": "100 ± 2", "unit": "%"}, {"measurement": "% Rescue after Treatment for 24 hours", "setting": "[1]; 300 μM MPP+ alone", "value": "0 ± 3", "unit": "%"}, {"measurement": "% Rescue after Treatment for 48 hours", "setting": "[1]; 300 μM MPP+ alone", "value": "0 ± 4", "unit": "%"}]}
{"compound": "CN1CC=C(c2ccccc2)CC1", "note": "[MPTP, 1-methyl-4-phenyl-1,2,3,6 tetrahydropyridine, reference compound]", "values": [{"measurement": "neurons that survive", "setting": "[2]; 4 days following an IP injection 30 mg/Kg of MPTP, no peptide", "value": 12.5, "unit": "%"}]}
{"compound": "CC[C@H](C)[C@H](NC(=O)[C@H](C)NC(=O)CNC(=O)[C@H](CCCCN)NC(=O)[C@H](CC(N)=O)NC(=O)[C@H](CO)NC(=O)CN)C(=O)N[C@H](C(=O)NCC(=O)N[C@@H](CC(C)C)C(=O)N[C@@H](CCSC)C(=O)O)[C@@H](C)CC", "note": "[Yankner peptide] (H-GSNKGAIIGLM-OH)", "values": [{"measurement": "OD 490 nm", "setting": "[3]; 3 days", "value": 0.568, "unit": "OD 490 nm"}, {"measurement": "OD 490 nm", "setting": "[3]; 4 days", "value": 0.127, "unit": "OD 490 nm"}, {"measurement": "cell death", "setting": "[4]", "value": 50, "unit": "%"}, {"measurement": "cells that die within 24 hrs", "setting": "[5]", "value": "about 60%"}]}
{"compound": "CC(C)[C@H](NC(=O)[C@H](CCC(=O)O)NC(=O)CCCCC1CCSS1)C(=O)N[C@@H](CC(=O)O)C(=O)N[C@@H](CC(=O)O)C(=O)N[C@@H](CC(=O)O)C(=O)N[C@@H](CCC(N)=O)C(=O)O", "note": "(stereo partly drawn) [[Lip]-EVDDDQ] ({Lipoyl(6ξ)}-EVDDDQ-OH; C-terminus assumed)", "values": [{"measurement": "passage through the Blood-Brain Barrier (in words)", "setting": "[2]; concluded from the in vivo effect", "value": "can get through the Blood-Brain Barrier"}]}
{"compound": "EVDDDQ [SEQ ID NO: 1]", "values": [{"measurement": "% Rescue after Treatment for 24 hours", "setting": "[1]; 300 μM MPP+ + 14 μM (10 μg/ml) peptide, n = 8", "value": "82 ± 2", "unit": "%"}, {"measurement": "% Rescue after Treatment for 24 hours", "setting": "[1]; 300 μM MPP+ + 14 μM (10 μg/ml) peptide, n = 8, listed as SEQ ID NO:1", "value": 82, "unit": "%"}, {"measurement": "% Rescue after Treatment for 0 hours", "setting": "[1]; [7]", "value": "100 ± 2", "unit": "%"}, {"measurement": "% Rescue after Treatment for 48 hours", "setting": "[1]; [7]", "value": "56 ± 4", "unit": "%"}, {"measurement": "reversal of the effects of anoxia / neuroprotection from anoxia (in words)", "setting": "[6]", "value": "active in reversing the effects of anoxia"}, {"measurement": "effects of anoxia, cell morphology and LDH release (in words)", "setting": "[6]; 1 ng/ml up to 10 ng/ml in the media, even after the 3 hr OGD treatment, 21 hours normoxia reperfusion", "value": "all the effects of anoxia were reversed and cell morphology and LDH release returned to normal"}, {"measurement": "LDH (A 490 nm)", "setting": "[6]; Table 3, anoxia + 1 ng/ml", "value": "0.33 ± .02 A 490 nm"}, {"measurement": "LDH Released % of Normoxia", "setting": "[6]; Table 3, anoxia + 1 ng/ml", "value": "100 % of Normoxia"}, {"measurement": "LDH (A 490 nm)", "setting": "[6]; Table 3, anoxia + 10 ng/ml", "value": "0.22 ± .03 A 490 nm"}, {"measurement": "LDH Released % of Normoxia", "setting": "[6]; Table 3, anoxia + 10 ng/ml", "value": "68 % of Normoxia"}, {"measurement": "LDH (A 490 nm)", "setting": "[6]; Table 3, anoxia + 100 ng/ml", "value": "0.161 ± .04 A 490 nm"}, {"measurement": "LDH Released % of Normoxia", "setting": "[6]; Table 3, anoxia + 100 ng/ml", "value": "50 % of Normoxia"}, {"measurement": "LDH release compared with normoxia controls (in words)", "setting": "[6]; high doses", "value": "decreased LDH release to lower amounts than those present in normoxia controls"}, {"measurement": "neurons rescued", "setting": "[6]; neurons exposed to a 3 hour oxygen-glucose deprivation (OGD)", "value": "90-100%"}]}
{"compound": "QDDDVE", "values": [{"measurement": "reversal of the effects of anoxia / neuroprotection from anoxia (in words)", "setting": "[6]", "value": "reverse effects of anoxia"}]}
{"compound": "VFTPPS", "values": [{"measurement": "reversal of the effects of anoxia / neuroprotection from anoxia (in words)", "setting": "[6]", "value": "reverse effects of anoxia"}]}
{"compound": "[Ac]-QDDDVE (Ac-QDDDVE)", "values": [{"measurement": "% Rescue per Treatment time 0 hours", "setting": "[1]; 42 μM peptide + 300 μM MPP+", "value": "100 ± 2", "unit": "%"}, {"measurement": "% Rescue per Treatment time 24 hours", "setting": "[1]; 42 μM peptide + 300 μM MPP+", "value": "42 ± 4", "unit": "%"}, {"measurement": "% Rescue per Treatment time 48 hours", "setting": "[1]; 42 μM peptide + 300 μM MPP+", "value": "27 ± 3", "unit": "%"}, {"measurement": "LDH (A 490 nm)", "setting": "[6]; Table 4, anoxia + 1 ng/ml", "value": "0.33 ± 0.02", "unit": "A 490 nm"}, {"measurement": "LDH Released % of Normoxia", "setting": "[6]; Table 4, anoxia + 1 ng/ml", "value": "100 ± 6 % of Normoxia"}, {"measurement": "LDH (A 490 nm)", "setting": "[6]; Table 4, anoxia + 10 ng/ml", "value": "0.22 ± 0.04", "unit": "A 490 nm"}, {"measurement": "LDH Released % of Normoxia", "setting": "[6]; Table 4, anoxia + 10 ng/ml", "value": "67 ± 12 % of Normoxia"}, {"measurement": "LDH (A 490 nm)", "setting": "[6]; Table 4, anoxia + 100 ng/ml", "value": "0.16 ± 0.05", "unit": "A 490 nm"}, {"measurement": "LDH Released % of Normoxia", "setting": "[6]; Table 4, anoxia + 100 ng/ml", "value": "48 ± 15 % of Normoxia"}]}
{"compound": "[Lip]-VFTPPS (Lip-VFTPPS) [VFTPPS conjugated to lipoic acid at the N-terminal amino acid]", "values": [{"measurement": "reversal of the effects of anoxia / neuroprotection from anoxia (in words)", "setting": "[6]", "value": "promote neuroprotection from anoxia"}, {"measurement": "LDH (A 490 nm)", "setting": "[6]; Table 4, anoxia + 10 ng/ml", "value": "0.56 ± 0.08", "unit": "A 490 nm"}, {"measurement": "LDH Released % of Normoxia", "setting": "[6]; Table 4, anoxia + 10 ng/ml", "value": "169 ± 24 % of Normoxia"}, {"measurement": "LDH (A 490 nm)", "setting": "[6]; Table 4, anoxia + 100 ng/ml", "value": "0.37 ± 0.04", "unit": "A 490 nm"}, {"measurement": "LDH Released % of Normoxia", "setting": "[6]; Table 4, anoxia + 100 ng/ml", "value": "112 ± 12 % of Normoxia"}]}
